Test results as given in the supplement of paper PMC10307832.

Experiments:
Test in all cases: relative viability (nuclei count vs DMSO), 5 days (fraction); higher = more cells survive
[1] = compound: C1=CC2=C(C=C(C(=C2N=C1)O)N=NC3=CC4=C(C=C3)C=C(C=C4)S(=O)(=O)O)S(=O)(=O)O + CS(=O)(=O)N1CCN(Cc2cc3nc(-c4cccc5[nH]ncc45)nc(N4CCOCC4)c3s2)CC1 [Pictilisib] (partner 1 µM)
How it was run: (§1)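 Lung cancer cell lines in 1536-well plates were dosed by pin tool the day after seeding, either with one drug alone or with a fixed anchor-drug dose plus five library-drug doses (not always all listed) in √10 steps. After 5 days, cells were fixed and their nuclei stained in one step (final 0.05% Triton X-100, 1% formaldehyde, 1 ug/ml Hoechst), then counted on 4× images. Relative viability is the nuclei count in treated wells divided by that in vehicle wells. Values are medians of duplicate plates.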

AT-7519 + Lapatinib = compound: O=C(NC1CCNCC1)c1n[nH]cc1NC(=O)c1c(Cl)cccc1Cl [AT-7519] + CS(=O)(=O)CCNCc1ccc(-c2ccc3ncnc(Nc4ccc(OCc5cccc(F)c5)c(Cl)c4)c3c2)o1 [Lapatinib] (partner 2 µM)
How it was run: as §1

[2] = compound: C1=CC2=C(C=C(C(=C2N=C1)O)N=NC3=CC4=C(C=C3)C=C(C=C4)S(=O)(=O)O)S(=O)(=O)O + CS(=O)(=O)CCNCc1ccc(-c2ccc3ncnc(Nc4ccc(OCc5cccc(F)c5)c(Cl)c4)c3c2)o1 [Lapatinib] (partner 2 µM)
How it was run: as §1

AT-7519 + Alpelisib = compound: O=C(NC1CCNCC1)c1n[nH]cc1NC(=O)c1c(Cl)cccc1Cl [AT-7519] + Cc1nc(NC(=O)N2CCC[C@H]2C(N)=O)sc1-c1ccnc(C(C)(C)C(F)(F)F)c1 [Alpelisib] (partner 2 µM)
How it was run: as §1

| Cell Line | relative viability ([1]; first compound 0.08 µM) | relative viability ([1]; first compound 0.253 µM) | relative viability ([1]; first compound 0.8 µM) | relative viability ([1]; first compound 2.53 µM) | relative viability ([1]; first compound 8 µM) | relative viability (AT-7519 + Lapatinib; first compound 0.01 µM) | relative viability (AT-7519 + Lapatinib; first compound 0.03162 µM) | relative viability (AT-7519 + Lapatinib; first compound 0.3162 µM) | relative viability (AT-7519 + Lapatinib; first compound 1 µM) | relative viability ([2]; first compound 0.08 µM) | relative viability ([2]; first compound 0.253 µM) | relative viability ([2]; first compound 0.8 µM) | relative viability ([2]; first compound 2.53 µM) | relative viability ([2]; first compound 8 µM) | relative viability (AT-7519 + Alpelisib; first compound 0.01 µM) | relative viability (AT-7519 + Alpelisib; first compound 0.03162 µM) | relative viability (AT-7519 + Alpelisib; first compound 0.3162 µM) | relative viability (AT-7519 + Alpelisib; first compound 1 µM) |
| --- | --- | --- | --- | --- | --- | --- | --- | --- | --- | --- | --- | --- | --- | --- | --- | --- | --- | --- |
| NCI-H1355 | 0.423 | 0.433 | 0.401 | 0.473 | 0.441 | 0.959 | 0.911 | 1.12 | 0.989 | 1.02 | 0.999 | 0.905 | 1.05 | 1.08 | 0.813 | 0.805 | 0.884 | 0.547 |
| HCC-78 | 0.206 | 0.178 | 0.221 | 0.219 | 0.118 | 0.837 | 0.79 | 1.08 | 0.878 | 0.763 | 0.625 | 0.702 | 0.922 | 0.192 | 0.142 | 0.286 | 0.305 | 0.283 |
| NCI-H1563 | 0.623 | 0.638 | 0.653 | 0.626 | 0.701 | 0.923 | 0.971 | 1.07 | 1.01 | 0.957 | 1.02 | 0.916 | 0.976 | 1.13 | 0.868 | 0.942 | 0.942 | 0.781 |
| HCC-15 | 0.839 | 0.766 | 0.635 | 0.804 | 0.636 | 0.891 | 0.828 | 0.692 | 0.5 | 0.963 | 0.841 | 0.843 | 0.832 | 0.888 | 0.959 | 0.905 | 0.763 | 0.406 |
| EKVX | 0.419 | 0.45 | 0.438 | 0.413 | 0.399 | 0.203 | 0.198 | 0.186 | 0.172 | 0.215 | 0.215 | 0.172 | 0.208 | 0.219 | 0.836 | 0.86 | 0.76 | 0.745 |
| NCI-H2087 | 1.07 | 0.863 | 0.77 | 0.945 | 0.909 | 1.2 | 1.11 | 0.998 | 0.185 | 1.16 | 0.981 | 1.02 | 1.03 | 1.02 | 1.14 | 1.21 | 1.01 | 0.161 |
| LK-2 | 0.677 | 0.522 | 0.613 | 0.541 | 0.552 | 0.816 | 0.951 | 0.706 | 0.706 | 0.946 | 0.883 | 0.839 | 0.939 | 0.718 | 0.697 | 1.12 | 0.827 | 0.514 |
| NCI-H1437 | 0.489 | 0.419 | 0.47 | 0.507 | 0.56 | 0.77 | 0.71 | 0.514 | 0.22 | 0.896 | 0.791 | 0.781 | 0.811 | 0.748 | 1.05 | 0.931 | 0.816 | 0.477 |
| COR-L23 | 0.982 | 0.81 | 0.692 | 0.753 | 0.857 | 1.14 | 0.786 | 0.325 | 0.121 | 1.3 | 0.971 | 0.92 | 1 | 1.15 | 0.987 | 0.746 | 0.348 | 0.119 |
